Measured values taken from patent publication US11713293B2, “Substituted biaryl sulfonamides and the use thereof” (NovoMedix, LLC, priority 2012, dated 2023).

What was measured:
[1] = system: triple negative breast cancer cell line MDA-MB-468; assay: Cell-based IC50 assay, adherent cells, MDA-MB-468; details: Homo sapiens, 72 hours, CellTiter 96 Aqueous One, metabolically active cells decreased by 50%
Description: (§1) In one embodiment, the IC50s of the compounds provided herein were determined in cell-based assays using adherent cells. In one embodiment, the activity of the compounds provided herein were determined in a cell-based assay using the triple negative breast cancer cell line MDA-MB-468. In one embodiment, the activity of the compounds provided herein were determined in a cell-based assay using the triple negative breast cancer cell line MDA-MB-231. In one embodiment, the activity of the compounds provided herein were determined in a cell-based assay using the triple negative breast cancer cell line 4T1.
(§2) In one embodiment, the cell-based assay may be carried out as provided herein. On day 0, cells were seeded at 20,000 cells per well in 100 μL of media into individual wells of a 96-well tissue culture plate. The next day, compounds were diluted to twice the desired final concentration and added in 100 μL of media for a final volume of 200 μL. Standard solutions for each compound were prepared at 1000× concentration in DMSO. The highest concentration was […]. Serial 1:1 dilutions were made from there for a 6- or 9-point curve (e.g., 20 mM, 10 mM, 5 mM, etc). Compounds were then diluted 1:500 in media, and 100 μL of the resulting solution was added to each well for a final dilution of 1:1000. Each concentration of compound was tested in triplicate. Cells were incubated at 37° C. with 5% CO2. After 72 hours, 20 μL of CellTiter 96 Aqueous One Solution Cell Proliferation Assay (Promega) was added to each well. Cells were placed back in the incubator, and the absorbance at 490 nm was read after 2-3 hours. The concentration of compound that decreased the number of metabolically active cells by 50% was determined and reported as the IC50. “Percent Viability” was determined by subtracting the average background value (media only) and expressed as a ratio to the average value obtained from cells treated with only DMSO.
The IC50s of the compounds provided herein and some reference compounds were determined in cell-based assay using triple negative breast cancer cell line MDA-MB-468.

[2] = system: triple negative breast cancer cell line 4T1; assay: Cell-based IC50 assay, adherent cells, 4T1; details: 72 hours, CellTiter 96 Aqueous One
Description: as §1
In one embodiment, the cell-based assay may be carried out as provided herein. On day 0, cells were seeded at 20,000 cells per well in 100 μL of media into individual wells of a 96-well tissue culture plate. The next day, compounds were diluted to twice the desired final concentration and added in 100 μL of media for a final volume of 200 μL. Standard solutions for each compound were prepared at 1000× concentration in DMSO. The highest concentration was 30 mM. […] Cells were placed back in the incubator, and the absorbance at 490 nm was read after 2-3 hours. […] “Percent Viability” was determined by subtracting the average background value (media only) and expressed as a ratio to the average value obtained from cells treated with only DMSO.

[3] = system: triple negative breast cancer cell line MDA-MB-231; assay: Cell-based IC50 assay, adherent cells, MDA-MB-231; details: Homo sapiens, 72 hours, CellTiter 96 Aqueous One
Description: as §1, §2

[4] = PK study and oral bioavailability, mouse; type: in vivo; details: plasma 0 to 6 h
[5] = PK study and oral bioavailability, rat; type: in vivo; details: plasma 0 to 6 h
[6] = system: m7GpppN-capped luciferase mRNA reporter; assay: In vitro HeLa cell extract translation system, translation inhibition; type: biochemical; details: concentration not given
Description: In one embodiment, the compounds provided herein were assayed for translation inhibition activity using an in vitro HeLa cell extract translation system with an m7GpppN-capped luciferase mRNA reporter.

[7] = IV 5 mg/kg, read-out: IV Administration (5 mg/kg) C0
[8] = IV 5 mg/kg, read-out: IV Administration (5 mg/kg) T½ (converted)
[9] = PO 25 mg/kg, read-out: PO Administration (25 mg/kg) C0

| SMILES | IC50 [1] | further results |
| --- | --- | --- |
| Cc1c(NS(=O)(=O)c2c(C(C)C)cc(C(C)C)cc2C(C)C)cc(C(F)(F)F)cc1C(F)(F)F [Compound 2, N-[2-Methyl-3,5-bis(trifluoromethyl)phenyl]-2,4,6-triisopropyl-benzenesulfonamide] | 2 µM | IC50 [2]: 5 µM; IC50 [3]: 6 µM; C0 [4, 7]: 53700 ng/mL; half-life [4, 8]: 2.9 h; C0 [4, 9]: 3610 ng/mL; half-life ([4]; PO 25 mg/kg, read-out: PO Administration (25 mg/kg) T½ (converted)): 2.4 h; C0 [5, 7]: 68900 ng/mL; half-life [5, 8]: 1.6 h; C0 [5, 9]: 27600 ng/mL; half-life ([5]; PO 25 mg/kg, read-out: PO Administration (25 mg/kg) T½): > 6 h |
| CC(C)c1cc(C(C)C)c(S(=O)(=O)Nc2cc(C(F)(F)F)cc(C(F)(F)F)c2Cl)c(C(C)C)c1 [Compound 3, N-[2-Chloro-3,5-bis(trifluoromethyl)phenyl]-2,4,6-triisopropyl-benzenesulfonamide] | 4.5 µM | IC50 [3]: 3 µM |
| CC(C)c1cc(C(C)C)c(NS(=O)(=O)c2cc(C(F)(F)F)cc(C(F)(F)F)c2)c(C(C)C)c1 [Compound 4, 3,5-Bis(trifluoromethyl)-N-(2,4,6-triisopropylphenyl)benzenesulfonamide] | 12 µM | – |
| CC(C)c1cc(C(C)C)c(S(=O)(=O)Nc2cc(C(F)(F)F)cc(C(F)(F)F)c2Br)c(C(C)C)c1 [Compound 5, N-[2-Bromo-3,5-bis(trifluoromethyl)phenyl]-2,4,6-triisopropyl-benzenesulfonamide] | 5 µM | – |
| Cc1cc(C(C)(C)C)cc(C)c1S(=O)(=O)Nc1cc(C(F)(F)F)cc(C(F)(F)F)c1 [Compound 6, N-[3,5-Bis(trifluoromethyl)phenyl]-4-tert-butyl-2,6-dimethyl-benzenesulfonamide] | 7 µM | – |
| CCc1cccc(CC)c1S(=O)(=O)Nc1cc(C(F)(F)F)cc(C(F)(F)F)c1C [Compound 7, 2,6-Diethyl-N-[2-methyl-3,5-bis(trifluoromethyl)phenyl]benzenesulfonamide] | 2 µM | – |
| CCc1cccc(CC)c1S(=O)(=O)Nc1cc(C(F)(F)F)cc(C(F)(F)F)c1 [Compound 8, N-[3,5-Bis(trifluoromethyl)phenyl]-2,6-diethyl-benzenesulfonamide] | 1.5 µM | – |
| Cc1cc(C(C)(C)C)cc(C)c1S(=O)(=O)Nc1cc(C(F)(F)F)cc(C(F)(F)F)c1C [Compound 9, 4-Tert-butyl-2,6-dimethyl-N-[2-methyl-3,5-bis(trifluoromethyl)phenyl]benzenesulfonamide] | 5 µM | – |
| Cc1cc(C(C)(C)C)cc(C)c1S(=O)(=O)Nc1cc(C(F)(F)F)cc(C(F)(F)F)c1Cl [Compound 10, 4-Tert-butyl-N-[2-chloro-3,5-bis(trifluoromethyl)phenyl]-2,6-dimethyl-benzenesulfonamide] | 3 µM | – |
| O=S(=O)(Nc1cc(C(F)(F)F)cc(C(F)(F)F)c1)c1cc(C(F)(F)F)cc(C(F)(F)F)c1 [Reference compound 1] | > 20 µM | – |
| O=S(=O)(Nc1cc(C(F)(F)F)cc(C(F)(F)F)c1)c1c(Cl)cccc1Cl [Reference compound 2] | 10 µM | – |
| N#Cc1ccc(NS(=O)(=O)c2cc(C(F)(F)F)cc(C(F)(F)F)c2)cc1Cl [Reference compound 3] | > 20 µM | – |
| Cc1cc(C)c(S(=O)(=O)Nc2cc(C(F)(F)F)cc(C(F)(F)F)c2)c(C)c1 [Reference compound 4] | 17 µM | – |
| Cc1c(C)c(C)c(S(=O)(=O)Nc2cc(C(F)(F)F)cc(C(F)(F)F)c2)c(C)c1C [Reference compound 5] | > 20 µM | – |
| COc1ccc(OC)c(S(=O)(=O)Nc2cc(C(F)(F)F)cc(C(F)(F)F)c2)c1 [Reference compound 6] | > 20 µM | – |
| CC(C)c1cc(C(C)C)c(S(=O)(=O)Nc2ccc(Br)cc2)c(C(C)C)c1 [Reference compound 7] | 14 µM | – |
| Cc1ccc(C)c(NS(=O)(=O)c2c(C(C)C)cc(C(C)C)cc2C(C)C)c1 [Reference compound 8] | > 20 µM | – |
| CC(C)c1cc(C(C)C)c(S(=O)(=O)Nc2cccc(F)c2)c(C(C)C)c1 [Reference compound 9] | > 20 µM | – |
| Cc1cc(C)c(NS(=O)(=O)c2c(C(C)C)cc(C(C)C)cc2C(C)C)c(C)c1 [Reference compound 10] | > 20 µM | – |
| CC(C)c1cc(C(C)C)c(S(=O)(=O)Nc2ccccc2F)c(C(C)C)c1 [Reference compound 11] | > 20 µM | – |
| Cc1c(Cl)cccc1NS(=O)(=O)c1c(C(C)C)cc(C(C)C)cc1C(C)C [Reference compound 12] | 19 µM | – |
| CC(=O)Nc1ccc(S(=O)(=O)Nc2cc(C(F)(F)F)cc(C(F)(F)F)c2)cc1 [Reference compound 13] | > 20 µM | – |
| C[C@@H]1C[C@@H]([C@H](O)CC2CC(=O)NC(=O)C2)C(=O)[C@@H](C)C1 [cycloheximide, reference compound] | – | inhibition of luciferase activity (comparator) [6]: 99.3% |
